In general, Dmax refers to the largest share of the target that was removed. What is called DC50 is the midpoint of the concentration-degradation curve. A low value points to degradation at low concentration.

Here are results for 43 molecules from US20230002397A1, “SMALL MOLECULE DEGRADERS OF HELIOS AND METODS OF USE” (DANA-FARBER CANCER INSTITUTE, INC., priority 2019, published 2023).

This test addresses T1, IKZF2 (Homo sapiens, UniProt Q96SW2+Q9UKS7).
T1 construct: CRISPR/Cas9—mediated insertion of the HiBiT peptide tag (Promega™) to the N-terminus of the IKZF2 gene locus; endogenous in cells; host or cells: MOLT4 cells, with CRISPR/Cas9 knock-in of HiBiT at the endogenous IKZF2 locus
Kind of test: HiBit-IKZF2 assay (HiBiT-Helios degradation in MOLT4 cells). The test is classed as cell-based. Conditions: for Dmax: MOLT-4, extent of degradation from highest to lowest concentration, 10 μM to 0.00026 μM, read-out: Dmax; for DC50: concentration at which 50% of HiBiT-Helios degradation was achieved. How it is done: The HiBiT protein tagging system was applied to MOLT4 cells via a CRISPR/Cas9—mediated insertion of the HiBiT peptide tag (Promega™) to the N-terminus of the IKZF2 gene locus (Neon™ Transfection System). The resulting HiBiT-Helios stable cell line was treated with the following compounds in triplicates following a 13-point concentration scheme ranging from 10 μM to 0.00026 μM. At the indicated timepoints, the Nano-Glo® HiBiT Lytic Detection System (Promega™) was utilized for detecting bioluminescence of the HiBiT tag in treated cells: abundance of the tag is proportionate to the level of luminescence. Following normalization to DMSO, dose-response curves were plotted (GraphPad Prism) to determine the concentration points at which 50% of HiBiT-Helios degradation was achieved by each compound. The extent of degradation (range of luminescence) from the highest to lowest concentration points was calculated to determine the Dmax.
(In general: The HiBiT peptide binds its large partner to form an active luciferase.)

T1 sequence (Q9UKS7 whole entry): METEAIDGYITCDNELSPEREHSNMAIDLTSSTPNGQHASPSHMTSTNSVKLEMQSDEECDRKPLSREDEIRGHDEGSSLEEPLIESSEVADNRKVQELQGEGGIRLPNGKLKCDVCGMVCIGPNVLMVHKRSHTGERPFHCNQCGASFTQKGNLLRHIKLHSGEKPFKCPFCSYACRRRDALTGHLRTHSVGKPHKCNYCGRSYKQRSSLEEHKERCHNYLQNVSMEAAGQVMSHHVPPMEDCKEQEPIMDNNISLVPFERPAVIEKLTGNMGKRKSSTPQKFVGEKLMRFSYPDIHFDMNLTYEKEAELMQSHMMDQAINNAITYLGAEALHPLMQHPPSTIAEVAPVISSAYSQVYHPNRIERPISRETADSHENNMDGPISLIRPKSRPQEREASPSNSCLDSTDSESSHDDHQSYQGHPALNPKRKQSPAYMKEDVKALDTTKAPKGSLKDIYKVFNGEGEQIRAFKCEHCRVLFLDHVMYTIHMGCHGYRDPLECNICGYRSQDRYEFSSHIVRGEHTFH
T1 sequence (Q96SW2 whole entry): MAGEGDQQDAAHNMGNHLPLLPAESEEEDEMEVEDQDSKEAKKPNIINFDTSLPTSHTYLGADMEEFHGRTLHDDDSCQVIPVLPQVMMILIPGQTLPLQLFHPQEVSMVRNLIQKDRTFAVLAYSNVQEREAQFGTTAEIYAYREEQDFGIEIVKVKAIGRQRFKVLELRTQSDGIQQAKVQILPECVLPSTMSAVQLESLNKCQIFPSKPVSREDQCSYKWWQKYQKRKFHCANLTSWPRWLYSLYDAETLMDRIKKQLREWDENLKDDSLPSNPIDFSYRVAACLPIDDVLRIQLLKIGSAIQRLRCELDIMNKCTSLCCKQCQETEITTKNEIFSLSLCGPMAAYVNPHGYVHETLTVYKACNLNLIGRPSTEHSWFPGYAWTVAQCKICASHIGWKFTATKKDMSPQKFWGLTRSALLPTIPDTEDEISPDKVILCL
T1 sequence (Q16531 whole entry partner): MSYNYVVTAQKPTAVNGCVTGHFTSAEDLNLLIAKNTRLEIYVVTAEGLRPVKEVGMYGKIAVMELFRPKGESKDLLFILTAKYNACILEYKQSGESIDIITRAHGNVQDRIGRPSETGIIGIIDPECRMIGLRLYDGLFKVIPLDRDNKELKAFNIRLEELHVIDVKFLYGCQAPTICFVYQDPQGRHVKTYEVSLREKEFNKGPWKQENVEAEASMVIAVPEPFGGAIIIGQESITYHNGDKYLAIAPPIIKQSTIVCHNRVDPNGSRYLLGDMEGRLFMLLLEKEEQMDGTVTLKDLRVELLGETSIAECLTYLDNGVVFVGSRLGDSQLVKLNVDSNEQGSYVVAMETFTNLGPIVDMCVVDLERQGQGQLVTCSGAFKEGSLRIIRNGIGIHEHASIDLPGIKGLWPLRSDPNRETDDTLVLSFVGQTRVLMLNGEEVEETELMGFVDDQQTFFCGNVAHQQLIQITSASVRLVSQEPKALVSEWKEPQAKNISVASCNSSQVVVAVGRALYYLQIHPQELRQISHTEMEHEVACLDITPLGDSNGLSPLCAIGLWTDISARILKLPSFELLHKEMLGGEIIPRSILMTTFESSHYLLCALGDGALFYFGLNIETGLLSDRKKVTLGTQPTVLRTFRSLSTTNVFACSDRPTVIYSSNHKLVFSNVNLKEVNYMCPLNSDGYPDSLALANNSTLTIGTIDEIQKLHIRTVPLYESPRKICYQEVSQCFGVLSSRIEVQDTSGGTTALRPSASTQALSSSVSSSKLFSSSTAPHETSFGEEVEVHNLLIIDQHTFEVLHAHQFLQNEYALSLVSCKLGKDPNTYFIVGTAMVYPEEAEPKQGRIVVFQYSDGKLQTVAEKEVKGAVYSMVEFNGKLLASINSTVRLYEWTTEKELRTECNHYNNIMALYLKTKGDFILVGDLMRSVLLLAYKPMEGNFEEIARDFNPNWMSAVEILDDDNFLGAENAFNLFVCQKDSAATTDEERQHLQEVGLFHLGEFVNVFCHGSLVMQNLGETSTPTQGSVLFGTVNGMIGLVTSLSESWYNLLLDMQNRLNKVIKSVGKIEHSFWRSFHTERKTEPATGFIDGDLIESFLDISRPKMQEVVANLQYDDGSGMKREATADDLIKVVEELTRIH

Take `O=C1CCC(N2Cc3cc(C4CCN(Cc5cccc(N6Cc7cccnc7C6=O)c5)CC4)ccc3C2=O)C(=O)N1` (centres unmarked) [Compound 129]: the greatest degradation seen (Dmax) was 50 to 70% and the DC50 lay within 10 to 30 nM.
For `O=C1CCC(N2Cc3cc(C4CCN(Cc5ccnc(C(=O)Nc6ccccn6)c5)CC4)ccc3C2=O)C(=O)N1` (centres unmarked) [Compound 130] the same measures were 50 to 70% and 10 to 30 nM.
On to `O=C1CCC(N2Cc3cc(C4CCN(Cc5ccnc(C(=O)Nc6ccccc6)c5)CC4)ccc3C2=O)C(=O)N1` (centres unmarked) [Compound 131], for which the Dmax is 50 to 70% and the 50% degradation concentration (DC50) fell in the range of 30 to 150 nM.
`O=C1CCC(N2Cc3cc(C4CCN(Cc5cccc(Nc6ccc(F)cn6)c5)CC4)ccc3C2=O)C(=O)N1` (centres unmarked) [Compound 132]: the Dmax lay within 50 to 70% and the half-maximal degradation concentration (DC50) was less than 10 nM.
For `O=C1CCC(N2Cc3cc(C4CCN(Cc5cccc(Nc6ncccc6F)c5)CC4)ccc3C2=O)C(=O)N1` (centres unmarked) [Compound 133] the same measures were 50 to 70% and less than 10 nM.
For `CP(C)(=O)c1ccccc1Nc1cccc(CN2CCC(c3ccc4c(c3)CN(C3CCC(=O)NC3=O)C4=O)CC2)c1` (centres unmarked) [Compound 134] the same measures were 50 to 70% and less than 10 nM.
On the same counts, the results for `CP(C)(=O)c1cccc(Nc2cccc(CN3CCC(c4ccc5c(c4)CN(C4CCC(=O)NC4=O)C5=O)CC3)c2)c1` (centres unmarked) [Compound 135, 3-(5-(1-(3-((3-(dimethylphosphoryl)phenyl)amino)benzyl)piperidin-4-yl)-1-oxoisoindolin-2-yl)piperidine-2,6-dione] are 50 to 70% and 10 to 30 nM.
In the case of `O=C1CCC(N2Cc3cc(C4CCN(Cc5cccc(N6Cc7ccccc7S6(=O)=O)c5)CC4)ccc3C2=O)C(=O)N1` (centres unmarked) [Compound 136], the Dmax is 50 to 70% and the DC50 was less than 10 nM.
Regarding `O=C1CCC(N2Cc3cc(C4CCN(Cc5ccnc(Nc6ccccc6)c5)CC4)ccc3C2=O)C(=O)N1` (centres unmarked) [Compound 137], the Dmax was 50 to 70% and the DC50 was less than 10 nM.
For the molecule `CP(C)(=O)c1ccccc1NC(=O)c1cccc(CN2CCC(c3ccc4c(c3)CN(C3CCC(=O)NC3=O)C4=O)CC2)c1` (centres unmarked) [Compound 138], the Dmax fell in the range of 50 to 70% and the DC50 was less than 10 nM.
With `O=C1CCC(N2Cc3cc(C4CCN(Cc5cnc(Nc6ccccc6)nc5)CC4)ccc3C2=O)C(=O)N1` (centres unmarked) [Compound 139], the Dmax was in the range of 50 to 70% and the DC50 is 30 to 150 nM.
`O=C1CCC(N2Cc3cc(C4CCN(Cc5ccc(C(=O)Nc6ccccc6)nc5)CC4)ccc3C2=O)C(=O)N1` (centres unmarked) [Compound 141]: the Dmax was 50 to 70% and the DC50 lay within 30 to 150 nM.
As for `O=C1CCC(N2Cc3cc(C4CCN(Cc5ccc(Nc6ccccc6)nc5)CC4)ccc3C2=O)C(=O)N1` (centres unmarked) [Compound 142], the Dmax is 50 to 70% and the DC50 fell in the range of 10 to 30 nM.
Consider `O=C1CCC(N2Cc3cc(C4CCN(Cc5ccccc5C(=O)Nc5ccccc5)CC4)ccc3C2=O)C(=O)N1` (centres unmarked) [Compound 144], for which the Dmax is 50 to 70% and the DC50 is 10 to 30 nM.
As for `O=C1CCC(N2Cc3cc(C4CCN(Cc5ccc(Nc6ccccn6)cc5)CC4)ccc3C2=O)C(=O)N1` (centres unmarked) [Compound 145], the Dmax was 50 to 70% and the DC50 lay in the range of 30 to 150 nM.
Turning to `O=C1CCC(N2Cc3cc(C4CCN(Cc5ccc6c(c5)C(=O)N(c5ccccc5)C6)CC4)ccc3C2=O)C(=O)N1` (centres unmarked) [Compound 146, 3-(1-oxo-5-(1-((3-oxo-2-phenylisoindolin-5-yl)methyl)piperidin-4-yl)isoindolin-2-yl)piperidine-2,6-dione], the greatest degradation seen (Dmax) was greater than 70% and the DC50 is 10 to 30 nM.
On the same counts, the results for `O=C1CCC(N2Cc3cc(C4CCN(Cc5ccc(N6CCCC6=O)cc5)CC4)ccc3C2=O)C(=O)N1` (centres unmarked) [Compound 147] are 50 to 70% and 30 to 150 nM.
For the molecule `O=C1CCC(N2Cc3cc(C4CCN(Cc5cnc(Nc6ccccc6)s5)CC4)ccc3C2=O)C(=O)N1` (centres unmarked) [Compound 148], the Dmax was 50 to 70% and the DC50 is 10 to 30 nM.
`O=C1CCC(N2Cc3cc(C4CCN(Cc5cccc(Nc6ncccn6)c5)CC4)ccc3C2=O)C(=O)N1` (centres unmarked) [Compound 149]: the Dmax is 50 to 70% and the DC50 is less than 10 nM.
Turning to `O=C1CCC(N2Cc3cc(C4CCN(Cc5cccc(C(=O)Nc6ccccn6)c5)CC4)ccc3C2=O)C(=O)N1` (centres unmarked) [Compound 156], the greatest degradation seen (Dmax) is 50 to 70% and the DC50 is less than 10 nM.
On the same counts, the results for `O=C1CCC(N2Cc3cc(C4CCN(Cc5ccc(S(=O)(=O)Nc6ccccn6)cc5)CC4)ccc3C2=O)C(=O)N1` (centres unmarked) [Compound 157] are 50 to 70% and 30 to 150 nM.
Take `O=C1CCC(N2Cc3cc(C4CCN(Cc5ccc(C(=O)Nc6ccccc6)cc5)CC4)ccc3C2=O)C(=O)N1` (centres unmarked) [Compound 158]: the greatest degradation seen (Dmax) lay within 50 to 70% and the 50% degradation concentration (DC50) fell in the range of 30 to 150 nM.
Consider `O=C1CCC(N2Cc3cc(C4CCN(Cc5cccc(N6CCCCC6=O)c5)CC4)ccc3C2=O)C(=O)N1` (centres unmarked) [Compound 161], for which the Dmax was in the range of 30 to 50% and the DC50 lay within 10 to 30 nM.
With `O=C1CCC(N2Cc3cc(C4CCN(Cc5cccc(S(=O)(=O)N6C7CCC6COC7)c5)CC4)ccc3C2=O)C(=O)N1` (centres unmarked) [Compound 162], the Dmax lay within 50 to 70% and the DC50 was less than 10 nM.
For the molecule `O=C1CCC(N2Cc3cc(C4CCN(Cc5ccc(S(=O)(=O)N(c6ccccc6)C6COC6)cc5)CC4)ccc3C2=O)C(=O)N1` (centres unmarked) [Compound 165], the Dmax was 50 to 70% and the half-maximal degradation concentration (DC50) was less than 10 nM.
With `O=C1CCC(N2Cc3cc(C4CCN(Cc5ccc(S(=O)(=O)N6CCc7ccccc76)cc5)CC4)ccc3C2=O)C(=O)N1` (centres unmarked) [Compound 167], the Dmax was in the range of 50 to 70% and the DC50 is less than 10 nM.
For the molecule `O=C1CCC(N2Cc3cc(C4CCN(Cc5ccc(S(=O)(=O)N6CCC7(CC7)C6)cc5)CC4)ccc3C2=O)C(=O)N1` (centres unmarked) [Compound 169], the Dmax was in the range of 50 to 70% and the 50% degradation concentration (DC50) was less than 10 nM.
Take `CN(C(=O)c1ccccc1)c1ccc(CN2CCC(c3ccc4c(c3)CN(C3CCC(=O)NC3=O)C4=O)CC2)cc1` (centres unmarked) [Compound 170]: the greatest degradation seen (Dmax) lay within 50 to 70% and the DC50 lay within 10 to 30 nM.
On to `O=C1CCC(N2Cc3cc(C4CCN(Cc5ccc6c(n5)C(=O)N(c5ccccc5)C6)CC4)ccc3C2=O)C(=O)N1` (centres unmarked) [Compound 172], for which the Dmax is 30 to 50% and the DC50 fell in the range of 10 to 30 nM.
Regarding `O=C1CCC(N2Cc3cc(C4CCN(Cc5cc6c(cn5)CN(c5ccccc5)C6=O)CC4)ccc3C2=O)C(=O)N1` (centres unmarked) [Compound 173], the Dmax was 50 to 70% and the DC50 lay in the range of 10 to 30 nM.
Turning to `O=C1CCC(N2Cc3cc(C4CCN(Cc5ccc6c(c5)C(=O)N(c5ccccc5F)C6)CC4)ccc3C2=O)C(=O)N1` (centres unmarked) [Compound 174], the Dmax was 50 to 70% and the DC50 was less than 10 nM.
Regarding `O=C1CCC(N2Cc3cc(C4CCN(Cc5ccc6c(c5)C(=O)N(c5cccc(F)c5)C6)CC4)ccc3C2=O)C(=O)N1` (centres unmarked) [Compound 175], the Dmax is 50 to 70% and the DC50 is less than 10 nM.
On the same counts, the results for `O=C1CCC(N2Cc3cc(C4CCN(Cc5ccc6c(c5)C(=O)N(c5cccc(Cl)c5)C6)CC4)ccc3C2=O)C(=O)N1` (centres unmarked) [Compound 176] are greater than 70% and 30 to 150 nM.
In the case of `N#Cc1ccc(N2Cc3ccc(CN4CCC(c5ccc6c(c5)CN(C5CCC(=O)NC5=O)C6=O)CC4)cc3C2=O)c(F)c1` (centres unmarked) [Compound 177], the Dmax fell in the range of 50 to 70% and the 50% degradation concentration (DC50) is less than 10 nM.
As for `O=C1CCC(N2Cc3cc(C4CCN(Cc5ccc6c(c5)C(=O)N(c5ncccn5)C6)CC4)ccc3C2=O)C(=O)N1` (centres unmarked) [Compound 178], the Dmax lay within 30 to 50% and the DC50 is 10 to 30 nM.
Turning to `N#Cc1ccccc1N1Cc2ccc(CN3CCC(c4ccc5c(c4)CN(C4CCC(=O)NC4=O)C5=O)CC3)cc2C1=O` (centres unmarked) [Compound 179], the Dmax lay within 50 to 70% and the DC50 was less than 10 nM.
For `O=C1CCC(N2Cc3cc(C4CCN(Cc5ccc6c(c5)C(=O)N(c5ccc(F)cc5)C6)CC4)ccc3C2=O)C(=O)N1` (centres unmarked) [Compound 180], the Dmax lay in the range of 50 to 70% and the DC50 was 10 to 30 nM.
As to `O=C1CCC(N2Cc3cc(C4CCN(Cc5ccc6c(c5)C(=O)N(c5ncccn5)CC6)CC4)ccc3C2=O)C(=O)N1` (centres unmarked) [Compound 182], the Dmax was 50 to 70% and the half-maximal degradation concentration (DC50) lay in the range of 30 to 150 nM.
For `O=C1CCC(N2Cc3cc(C4CCN(Cc5ccc6c(c5)C(=O)N(c5ccccc5)CCC6)CC4)ccc3C2=O)C(=O)N1` (centres unmarked) [Compound 183, 3-(1-oxo-5-(1-((1-oxo-2-phenyl-2,3,4,5-tetrahydro-1H-benzo[c]azepin-8-yl)methyl)piperidin-4-yl)isoindolin-2-yl)piperidine-2,6-dione] the same measures were 50 to 70% and less than 10 nM.
Regarding `O=C1CCC(N2Cc3cc(C4CCN(Cc5ccc6c(c5)C(=O)N(c5ccccn5)CCC6)CC4)ccc3C2=O)C(=O)N1` (centres unmarked) [Compound 184], the Dmax fell in the range of 50 to 70% and the DC50 fell in the range of 10 to 30 nM.
Regarding `N#Cc1ccc(CN2CCC(c3ccc4c(c3)CN(C3CCC(=O)NC3=O)C4=O)CC2)nc1Nc1ccccc1` (centres unmarked) [Compound 186], the Dmax was 50 to 70% and the DC50 lay in the range of 30 to 150 nM.
Take `O=C1CCC(N2Cc3cc(C4CCN(Cc5ccc(F)c(Nc6ccccc6)n5)CC4)ccc3C2=O)C(=O)N1` (centres unmarked) [Compound 187]: the Dmax was in the range of 50 to 70% and the DC50 is 10 to 30 nM.
`O=C1CCC(N2Cc3cc(C4CCN(Cc5cccc(Nc6ncccn6)c5F)CC4)ccc3C2=O)C(=O)N1` (centres unmarked) [Compound 188]: the Dmax lay within 50 to 70% and the 50% degradation concentration (DC50) was less than 10 nM.
